In patent US10159640B2, “Prebiotic oral care compositions containing amino acids” (COLGATE-PALMOLIVE COMPANY, priority 2013, dated 2018):

What was measured:
Assay type in all cases: cell-based
[1] = tested on: beneficial oral bacteria and pathogenic oral bacteria; test: Extent of growth, whole panel: prebiotic effect; conditions: threshold value of 1.25
Source text: Substrates that were able to increase the growth (or maximal growth density or extent of growth) of at least one of the above beneficial bacteria while not or only minimally increasing the growth (or maximal growth density) of the pathogenic bacteria are considered to be prebiotic compounds.
(§1) The extent of growth of the tested bacteria in response to selected compounds (Met-Pro, Phe-Glu) was investigated by setting up growth curves in a nutritionally rich medium (brain heart infusion broth (BHI), Oxoid), over 48 hours. Late exponential growth phase liquid cultures were prepared by transferring the respective bacterium from blood agar plates to BHI and overnight incubation at 37° C. in an anaerobic atmosphere for A. viscosus, V. parvula, F. nucleatum, P. gingivalis, P. intermedia, T. forsythia, A. naeslundii, and C. sputigena, and in a 5% CO2 environment for S. salivarius, S. sanguinis, S. mitis, A. actinomycetemcomitans, S. mutans, S. sobrinus and S. gordonii. Overnight cultures were transferred to BHI and adjusted to a concentration of 1×10^7 CFU/ml (colony forming units per ml) by measuring the optical density at 600 nm (OD600) (BioRad SmartSpec 3000). For each strain, 200 μl of the bacterial suspension was added to a 96-well plate containing 20 μl of the respective di-peptides. Final concentrations of the di-peptides were set to 5, 10, 20 and 25 μmol/ml. […] Plates were incubated as previously described.
(§2) For each combination of bacterium/dipeptide, and for each of their respective controls (i.e. the particular bacterium in the nutritionally rich medium with no dipeptide), the optical density was measured at 630 nm (OD630) at 0 h, 24 h and 48 h (Thermo Scientific Multiskan Ascent). Additionally, the OD630 for combinations of bacterium/dipeptide grown in a 5% CO2 environment were also measured every hour between 0 h and 9 h.
(§3) The experiment was carried out on three different days (thus providing 3 biological replicas) and on each day the experiment was carried out in quadruple (thus providing 4 technical replicas) for each combination of bacterium with dipeptide and for each control. For each day and for each combination, the average (mean) of the values obtained (as detailed above) for the four technical replicas was calculated to provide a single value for each combination on each day. The values shown in Tables 5 to 6, below, are the average (mean) of the three single values obtained for each combination of bacterium with dipeptide.
This value was selected in order to exclude low-stimulating metabolites and avoid false positive results.

[2] = tested on: Streptococcus sanguinis; test: Extent of growth, growth curves in BHI; conditions: control = 1
Protocol: as §1, §2, §3

[3] = tested on: Streptococcus sobrinus; test: Extent of growth, growth curves in BHI; conditions: control = 1
Protocol: as §1, §2, §3

[4] = tested on: Capnocytophaga sputigena; test: Extent of growth, growth curves in BHI; conditions: control = 1
Protocol: as §1, §2, §3

[5] = tested on: Streptococcus salivarius; test: Extent of growth, growth curves in BHI; conditions: control = 1
Protocol: as §1, §2, §3

[6] = tested on: Tannerella forsythia; test: Extent of growth, growth curves in BHI; conditions: control = 1
Protocol: as §1, §2, §3

[7] = tested on: Actinomyces viscosus; test: Extent of growth, growth curves in BHI; conditions: control = 1
Protocol: as §1, §2, §3

[8] = tested on: Veillonella parvula; test: Extent of growth, growth curves in BHI; conditions: control = 1
Protocol: as §1, §2, §3

[9] = tested on: Streptococcus mitis; test: Extent of growth, growth curves in BHI; conditions: control = 1
Protocol: as §1, §2, §3

[10] = tested on: Aggregatibacter actinomycetemcomitans; test: Extent of growth, growth curves in BHI; conditions: control = 1
Protocol: as §1, §2, §3

[11] = tested on: Streptococcus mutans; test: Extent of growth, growth curves in BHI; conditions: control = 1
Protocol: as §1, §2, §3

[12] = tested on: Porphyromonas gingivalis; test: Extent of growth, growth curves in BHI; conditions: control = 1
Protocol: as §1, §2, §3

[13] = tested on: Prevotella intermedia; test: Extent of growth, growth curves in BHI; conditions: control = 1
Protocol: as §1, §2, §3

[14] = tested on: Actinomyces naeslundii; test: Extent of growth, growth curves in BHI; conditions: control = 1
Protocol: as §1, §2, §3

[15] = tested on: Streptococcus gordonii; test: Extent of growth, growth curves in BHI; conditions: control = 1
Protocol: as §1, §2, §3

[16] = tested on: Fusobacterium nucleatum; test: Extent of growth, growth curves in BHI; conditions: control = 1
Protocol: as §1, §2, §3

Met-Pro
prebiotic effects (extent of growth) ([1]; 10 μmol/ml): exhibited prebiotic effects
prebiotic effects (extent of growth) ([1]; 20 μmol/ml): exhibited prebiotic effects
prebiotic effects (extent of growth) ([1]; 25 μmol/ml): exhibited prebiotic effects
extent of growth: maximal OD630 over 48 hr divided by maximal OD of control ([2]; 5 μmol/ml): 0.9059
extent of growth: maximal OD630 over 48 hr divided by maximal OD of control ([2]; 10 μmol/ml): 0.9070
extent of growth: maximal OD630 over 48 hr divided by maximal OD of control ([2]; 20 μmol/ml): 0.6852
extent of growth: maximal OD630 over 48 hr divided by maximal OD of control ([2]; 25 μmol/ml): 0.5011
extent of growth: maximal OD630 over 48 hr divided by maximal OD of control ([3]; 5 μmol/ml): 0.9294
extent of growth: maximal OD630 over 48 hr divided by maximal OD of control ([3]; 10 μmol/ml): 1.0301
extent of growth: maximal OD630 over 48 hr divided by maximal OD of control ([3]; 20 μmol/ml): 1.0167
extent of growth: maximal OD630 over 48 hr divided by maximal OD of control ([3]; 25 μmol/ml): 0.8547
extent of growth: maximal OD630 over 48 hr divided by maximal OD of control ([4]; 5 μmol/ml): 0.9618
extent of growth: maximal OD630 over 48 hr divided by maximal OD of control ([4]; 10 μmol/ml): 3.5579
extent of growth: maximal OD630 over 48 hr divided by maximal OD of control ([4]; 20 μmol/ml): 2.9796
extent of growth: maximal OD630 over 48 hr divided by maximal OD of control ([4]; 25 μmol/ml): 0.9701
extent of growth: maximal OD630 over 48 hr divided by maximal OD of control ([5]; 5 μmol/ml): 0.9729
extent of growth: maximal OD630 over 48 hr divided by maximal OD of control ([5]; 10 μmol/ml): 1.0153
extent of growth: maximal OD630 over 48 hr divided by maximal OD of control ([5]; 20 μmol/ml): 0.7572
extent of growth: maximal OD630 over 48 hr divided by maximal OD of control ([5]; 25 μmol/ml): 0.5262
extent of growth: maximal OD630 over 48 hr divided by maximal OD of control ([6]; 5 μmol/ml): 0.9244
extent of growth: maximal OD630 over 48 hr divided by maximal OD of control ([6]; 10 μmol/ml): 0.9743
extent of growth: maximal OD630 over 48 hr divided by maximal OD of control ([6]; 20 μmol/ml): 0.7533
extent of growth: maximal OD630 over 48 hr divided by maximal OD of control ([6]; 25 μmol/ml): 0.7018
extent of growth: maximal OD630 over 48 hr divided by maximal OD of control ([7]; 5 μmol/ml): 0.4873
extent of growth: maximal OD630 over 48 hr divided by maximal OD of control ([7]; 10 μmol/ml): 0.4102
extent of growth: maximal OD630 over 48 hr divided by maximal OD of control ([7]; 20 μmol/ml): 0.3154
extent of growth: maximal OD630 over 48 hr divided by maximal OD of control ([7]; 25 μmol/ml): 0.2498
extent of growth: maximal OD630 over 48 hr divided by maximal OD of control ([8]; 5 μmol/ml): 0.9980
extent of growth: maximal OD630 over 48 hr divided by maximal OD of control ([8]; 10 μmol/ml): 0.9808
extent of growth: maximal OD630 over 48 hr divided by maximal OD of control ([8]; 20 μmol/ml): 0.9516
extent of growth: maximal OD630 over 48 hr divided by maximal OD of control ([8]; 25 μmol/ml): 0.9671
extent of growth: maximal OD630 over 48 hr divided by maximal OD of control ([9]; 5 μmol/ml): 0.9134
extent of growth: maximal OD630 over 48 hr divided by maximal OD of control ([9]; 10 μmol/ml): 1.2332
extent of growth: maximal OD630 over 48 hr divided by maximal OD of control ([9]; 20 μmol/ml): 1.8922
extent of growth: maximal OD630 over 48 hr divided by maximal OD of control ([9]; 25 μmol/ml): 1.7501
extent of growth: maximal OD630 over 48 hr divided by maximal OD of control ([10]; 5 μmol/ml): 0.7454
extent of growth: maximal OD630 over 48 hr divided by maximal OD of control ([10]; 10 μmol/ml): 0.6321
extent of growth: maximal OD630 over 48 hr divided by maximal OD of control ([10]; 20 μmol/ml): 0.3282
extent of growth: maximal OD630 over 48 hr divided by maximal OD of control ([10]; 25 μmol/ml): 0.2297
extent of growth: maximal OD630 over 48 hr divided by maximal OD of control ([11]; 5 μmol/ml): 0.9473
extent of growth: maximal OD630 over 48 hr divided by maximal OD of control ([11]; 10 μmol/ml): 0.9083
extent of growth: maximal OD630 over 48 hr divided by maximal OD of control ([11]; 20 μmol/ml): 0.7929
extent of growth: maximal OD630 over 48 hr divided by maximal OD of control ([11]; 25 μmol/ml): 0.5618
extent of growth: maximal OD630 over 48 hr divided by maximal OD of control ([12]; 5 μmol/ml): 0.8702
extent of growth: maximal OD630 over 48 hr divided by maximal OD of control ([12]; 10 μmol/ml): 0.8266
extent of growth: maximal OD630 over 48 hr divided by maximal OD of control ([12]; 20 μmol/ml): 0.7021
extent of growth: maximal OD630 over 48 hr divided by maximal OD of control ([12]; 25 μmol/ml): 0.4276
extent of growth: maximal OD630 over 48 hr divided by maximal OD of control ([13]; 5 μmol/ml): 0.9177
extent of growth: maximal OD630 over 48 hr divided by maximal OD of control ([13]; 10 μmol/ml): 0.9742
extent of growth: maximal OD630 over 48 hr divided by maximal OD of control ([13]; 20 μmol/ml): 0.3193
extent of growth: maximal OD630 over 48 hr divided by maximal OD of control ([13]; 25 μmol/ml): 0.2336
extent of growth: maximal OD630 over 48 hr divided by maximal OD of control ([14]; 5 μmol/ml): 0.8420
extent of growth: maximal OD630 over 48 hr divided by maximal OD of control ([14]; 10 μmol/ml): 0.8131
extent of growth: maximal OD630 over 48 hr divided by maximal OD of control ([14]; 20 μmol/ml): 0.5466
extent of growth: maximal OD630 over 48 hr divided by maximal OD of control ([14]; 25 μmol/ml): 0.3360
extent of growth: maximal OD630 over 48 hr divided by maximal OD of control ([15]; 5 μmol/ml): 0.9757
extent of growth: maximal OD630 over 48 hr divided by maximal OD of control ([15]; 10 μmol/ml): 0.9528
extent of growth: maximal OD630 over 48 hr divided by maximal OD of control ([15]; 20 μmol/ml): 0.7735
extent of growth: maximal OD630 over 48 hr divided by maximal OD of control ([15]; 25 μmol/ml): 0.6853
extent of growth: maximal OD630 over 48 hr divided by maximal OD of control ([16]; 5 μmol/ml): 0.8422
extent of growth: maximal OD630 over 48 hr divided by maximal OD of control ([16]; 10 μmol/ml): 0.8667
extent of growth: maximal OD630 over 48 hr divided by maximal OD of control ([16]; 20 μmol/ml): 0.7782
extent of growth: maximal OD630 over 48 hr divided by maximal OD of control ([16]; 25 μmol/ml): 0.7273
